Key:
Assay in all cases: PRESTO-Tango GPCR screen
Type in all cases: cell-based
Conditions in all cases: 100 µM
[1] = molecular target: T1, GPR148 (Homo sapiens, UniProt Q8TDV2)
T1 construct: purchased PRESTO-Tango GPCR kit (Roth lab / Addgene)
Description: (§1) The PRESTO-Tango analyses were performed as previously published. Briefly, HTLA cells, a HEK293 cell line that stably expresses β-arrestin-TEV and tTA-Luciferase (a kind gift from Gilad Barnea, Brown University), were plated in 96-well tissue culture plates (Eppendorf) in DMEM containing 10% FBS and 1% Penicillin/Streptomycin. One day after plating (after reaching approximately 90% confluence), 200 ng per well GPCR-Tango plasmids[37] in 20 μL DMEM were individually mixed with 400 ng polyethylenimine (Polysciences) in an equal volume of DMEM and incubated for 20 min at room temperature before adding the transfection mixture to the HTLA cells. 16-24 h after transfection, medium was replaced with 180 μL fresh DMEM containing 1% Penicillin/Streptomycin and 10 mM HEPES and 20 μL of 3 or 3-Homo to reach a final concentration of 100 μM. Supernatants were aspirated 20 h after stimulation and 50 μl per well of Bright-Glo solution (Promega) diluted 20-fold with PBS containing 20 mM HEPES was added into each well. After 15 min incubation at room temperature, luminescence was quantified using a Spectramax i3x microplate reader (Molecular Devices). Activation fold for each sample was calculated by dividing relative luminescence units (RLU) for each condition by RLUs from PBS control. Dose response curves of each chemical were performed in a similar way with varying the ligand concentration from 10^−4 M to 10^−15 M.

[2] = molecular target: T2, GPR123 (Homo sapiens, UniProt Q86SQ6)
T2 construct: purchased PRESTO-Tango GPCR kit (Roth lab / Addgene)
Description: as §1

[3] = molecular target: T3, RXFP2 (Homo sapiens, UniProt Q8WXD0)
T3 construct: purchased PRESTO-Tango GPCR kit (Roth lab / Addgene)
Description: as §1

[4] = molecular target: T4, S1PR2 (Homo sapiens, UniProt O95136)
T4 construct: purchased PRESTO-Tango GPCR kit (Roth lab / Addgene)
Description: as §1

[5] = molecular target: T5, GPR125 (Homo sapiens, UniProt Q8IWK6)
T5 construct: purchased PRESTO-Tango GPCR kit (Roth lab / Addgene)
Description: as §1

[6] = molecular target: T6, GPR56 (Homo sapiens, UniProt Q9Y653)
T6 construct: purchased PRESTO-Tango GPCR kit (Roth lab / Addgene)
Description: as §1

[7] = molecular target: T7, NMBR (Homo sapiens, UniProt P28336)
T7 construct: purchased PRESTO-Tango GPCR kit (Roth lab / Addgene)
Description: as §1

[8] = molecular target: T8, GPR27 (Homo sapiens, UniProt Q9NS67)
T8 construct: purchased PRESTO-Tango GPCR kit (Roth lab / Addgene)
Description: as §1

[9] = molecular target: T9, PTGER4 (Homo sapiens, UniProt P35408)
T9 construct: purchased PRESTO-Tango GPCR kit (Roth lab / Addgene)
Description: as §1

[10] = molecular target: T10, ADORA2B (Homo sapiens, UniProt P29275)
T10 construct: purchased PRESTO-Tango GPCR kit (Roth lab / Addgene)
Description: as §1

[11] = molecular target: T11, GLP1R (Homo sapiens, UniProt P43220)
T11 construct: purchased PRESTO-Tango GPCR kit (Roth lab / Addgene)
Description: as §1

[12] = molecular target: T12, GPR78 (Homo sapiens, UniProt Q96P69)
T12 construct: purchased PRESTO-Tango GPCR kit (Roth lab / Addgene)
Description: as §1

[13] = molecular target: T13, MRGPRX4 (Homo sapiens, UniProt Q96LA9)
T13 construct: purchased PRESTO-Tango GPCR kit (Roth lab / Addgene)
Description: as §1

[14] = molecular target: T14, LPAR1 (Homo sapiens, UniProt Q92633)
T14 construct: purchased PRESTO-Tango GPCR kit (Roth lab / Addgene)
Description: as §1

[15] = molecular target: T15, GRM4 (Homo sapiens, UniProt Q14833)
T15 construct: purchased PRESTO-Tango GPCR kit (Roth lab / Addgene)
Description: as §1

[16] = molecular target: T16, F2RL2 (Homo sapiens, UniProt O00254)
T16 construct: purchased PRESTO-Tango GPCR kit (Roth lab / Addgene)
Description: as §1

[17] = molecular target: T17, NPBW2 (Homo sapiens, UniProt P48146)
T17 construct: purchased PRESTO-Tango GPCR kit (Roth lab / Addgene)
Description: as §1

[18] = molecular target: T18, PTGER3 (Homo sapiens, UniProt P43115)
T18 construct: purchased PRESTO-Tango GPCR kit (Roth lab / Addgene)
Description: as §1

[19] = molecular target: T19, GPRC5C (Homo sapiens, UniProt Q9NQ84)
T19 construct: purchased PRESTO-Tango GPCR kit (Roth lab / Addgene)
Description: as §1

[20] = molecular target: T20, GPR146 (Homo sapiens, UniProt Q96CH1)
T20 construct: purchased PRESTO-Tango GPCR kit (Roth lab / Addgene)
Description: as §1

[21] = molecular target: T21, CX3C1 (Homo sapiens, UniProt P49238)
T21 construct: purchased PRESTO-Tango GPCR kit (Roth lab / Addgene)
Description: as §1

[22] = molecular target: T22, BDKBR2 (Homo sapiens, UniProt P30411)
T22 construct: purchased PRESTO-Tango GPCR kit (Roth lab / Addgene)
Description: as §1

[23] = molecular target: T23, ADRB1 (Homo sapiens, UniProt P08588)
T23 construct: purchased PRESTO-Tango GPCR kit (Roth lab / Addgene)
Description: as §1

[24] = molecular target: T24, CCR7 (Homo sapiens, UniProt P32248)
T24 construct: purchased PRESTO-Tango GPCR kit (Roth lab / Addgene)
Description: as §1

[25] = molecular target: T25, DRD3 (Homo sapiens, UniProt P35462)
T25 construct: purchased PRESTO-Tango GPCR kit (Roth lab / Addgene)
Description: as §1

[26] = molecular target: T26, HTR1B (Homo sapiens, UniProt P28222)
T26 construct: purchased PRESTO-Tango GPCR kit (Roth lab / Addgene)
Description: as §1

[27] = molecular target: T27, GPRC5A (Homo sapiens, UniProt Q8NFJ5)
T27 construct: purchased PRESTO-Tango GPCR kit (Roth lab / Addgene)
Description: as §1

[28] = molecular target: T28, GPR20 (Homo sapiens, UniProt Q99678)
T28 construct: purchased PRESTO-Tango GPCR kit (Roth lab / Addgene)
Description: as §1

[29] = molecular target: T29, GPR114 (Homo sapiens, UniProt Q8IZF4)
T29 construct: purchased PRESTO-Tango GPCR kit (Roth lab / Addgene)
Description: as §1

[30] = molecular target: T30, BB3 (Homo sapiens, UniProt P32247)
T30 construct: purchased PRESTO-Tango GPCR kit (Roth lab / Addgene)
Description: as §1

[31] = molecular target: T31, FPR2 (Homo sapiens, UniProt P25090)
T31 construct: purchased PRESTO-Tango GPCR kit (Roth lab / Addgene)
Description: as §1

[32] = molecular target: T32, HTR1F (Homo sapiens, UniProt P30939)
T32 construct: purchased PRESTO-Tango GPCR kit (Roth lab / Addgene)
Description: as §1

[33] = molecular target: T33, GPR143 (Homo sapiens, UniProt P51810)
T33 construct: purchased PRESTO-Tango GPCR kit (Roth lab / Addgene)
Description: as §1

[34] = molecular target: T34, HCA2 (Homo sapiens, UniProt Q8TDS4)
T34 construct: purchased PRESTO-Tango GPCR kit (Roth lab / Addgene)
Description: as §1

[35] = molecular target: T35, GPR126 (Homo sapiens, UniProt Q86SQ4)
T35 construct: purchased PRESTO-Tango GPCR kit (Roth lab / Addgene)
Description: as §1

T18 sequence (P43115 whole entry): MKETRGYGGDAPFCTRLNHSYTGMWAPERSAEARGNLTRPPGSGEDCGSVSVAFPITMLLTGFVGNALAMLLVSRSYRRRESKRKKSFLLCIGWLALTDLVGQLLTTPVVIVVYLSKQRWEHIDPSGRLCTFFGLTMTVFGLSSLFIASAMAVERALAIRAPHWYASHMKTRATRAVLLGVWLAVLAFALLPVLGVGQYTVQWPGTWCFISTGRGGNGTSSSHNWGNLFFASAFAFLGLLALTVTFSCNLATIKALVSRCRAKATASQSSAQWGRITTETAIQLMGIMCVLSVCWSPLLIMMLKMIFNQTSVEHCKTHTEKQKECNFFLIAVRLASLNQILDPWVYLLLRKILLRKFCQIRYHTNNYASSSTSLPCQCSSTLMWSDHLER
T7 sequence (P28336 whole entry): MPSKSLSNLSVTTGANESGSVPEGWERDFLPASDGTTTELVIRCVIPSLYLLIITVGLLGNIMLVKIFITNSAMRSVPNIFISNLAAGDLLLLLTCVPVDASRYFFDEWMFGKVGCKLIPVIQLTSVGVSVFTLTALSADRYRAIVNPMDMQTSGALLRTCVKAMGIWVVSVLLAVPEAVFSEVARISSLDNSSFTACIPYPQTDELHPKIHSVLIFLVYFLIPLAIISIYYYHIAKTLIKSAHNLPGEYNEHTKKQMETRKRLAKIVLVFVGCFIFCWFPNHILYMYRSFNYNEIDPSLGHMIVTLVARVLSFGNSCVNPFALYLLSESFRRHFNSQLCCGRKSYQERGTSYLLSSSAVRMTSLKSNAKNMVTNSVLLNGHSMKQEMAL
T9 sequence (P35408 whole entry): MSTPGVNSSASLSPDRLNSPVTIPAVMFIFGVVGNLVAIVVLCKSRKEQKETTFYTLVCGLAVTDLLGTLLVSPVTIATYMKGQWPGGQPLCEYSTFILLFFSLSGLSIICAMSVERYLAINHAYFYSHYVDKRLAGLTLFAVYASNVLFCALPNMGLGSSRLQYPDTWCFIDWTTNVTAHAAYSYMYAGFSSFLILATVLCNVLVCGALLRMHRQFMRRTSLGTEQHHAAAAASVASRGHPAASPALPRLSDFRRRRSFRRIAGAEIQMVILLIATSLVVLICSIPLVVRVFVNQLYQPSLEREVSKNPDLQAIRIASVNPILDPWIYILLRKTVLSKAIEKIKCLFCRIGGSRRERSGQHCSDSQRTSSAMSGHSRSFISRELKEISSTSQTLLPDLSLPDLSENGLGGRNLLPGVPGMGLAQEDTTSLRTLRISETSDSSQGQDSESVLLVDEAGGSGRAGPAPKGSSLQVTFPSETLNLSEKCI
T11 sequence (P43220 24-463): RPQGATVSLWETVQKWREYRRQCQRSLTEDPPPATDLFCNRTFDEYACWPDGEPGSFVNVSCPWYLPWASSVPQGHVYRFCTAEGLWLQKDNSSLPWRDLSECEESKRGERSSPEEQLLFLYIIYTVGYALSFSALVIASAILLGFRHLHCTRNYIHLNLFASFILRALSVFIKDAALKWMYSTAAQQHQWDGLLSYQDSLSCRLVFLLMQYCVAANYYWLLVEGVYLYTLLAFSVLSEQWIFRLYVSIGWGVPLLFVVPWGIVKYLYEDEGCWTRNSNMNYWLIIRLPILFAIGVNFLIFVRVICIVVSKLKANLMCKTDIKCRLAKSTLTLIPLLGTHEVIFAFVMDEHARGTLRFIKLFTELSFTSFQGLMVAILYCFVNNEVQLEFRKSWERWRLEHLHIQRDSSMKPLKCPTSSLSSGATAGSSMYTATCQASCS
T2 sequence (Q86SQ6 whole entry): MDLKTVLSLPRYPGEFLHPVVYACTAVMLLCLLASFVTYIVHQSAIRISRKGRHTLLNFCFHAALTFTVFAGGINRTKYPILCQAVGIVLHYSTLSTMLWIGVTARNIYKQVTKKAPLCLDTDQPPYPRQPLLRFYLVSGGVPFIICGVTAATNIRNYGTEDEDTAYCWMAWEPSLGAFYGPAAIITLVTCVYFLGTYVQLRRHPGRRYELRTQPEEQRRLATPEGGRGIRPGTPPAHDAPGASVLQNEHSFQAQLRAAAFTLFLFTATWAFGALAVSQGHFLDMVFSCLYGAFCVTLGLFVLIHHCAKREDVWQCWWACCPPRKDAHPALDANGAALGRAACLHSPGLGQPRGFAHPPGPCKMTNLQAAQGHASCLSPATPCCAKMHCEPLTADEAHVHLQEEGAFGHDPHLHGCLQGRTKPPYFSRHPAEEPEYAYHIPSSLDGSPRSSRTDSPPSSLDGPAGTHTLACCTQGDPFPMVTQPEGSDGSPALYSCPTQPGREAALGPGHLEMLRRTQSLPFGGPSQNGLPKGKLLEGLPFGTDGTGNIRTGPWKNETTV
T21 sequence (P49238 whole entry): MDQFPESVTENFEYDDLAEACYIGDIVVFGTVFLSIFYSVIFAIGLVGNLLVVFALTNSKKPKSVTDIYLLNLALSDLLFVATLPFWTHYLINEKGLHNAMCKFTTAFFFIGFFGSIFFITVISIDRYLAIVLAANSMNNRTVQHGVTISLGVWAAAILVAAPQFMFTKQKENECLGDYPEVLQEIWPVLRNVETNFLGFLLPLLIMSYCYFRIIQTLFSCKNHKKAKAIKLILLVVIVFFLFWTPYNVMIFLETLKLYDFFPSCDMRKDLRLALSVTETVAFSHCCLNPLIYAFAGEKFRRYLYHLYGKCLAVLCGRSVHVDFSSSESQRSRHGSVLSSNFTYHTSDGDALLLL
T24 sequence (P32248 25-378): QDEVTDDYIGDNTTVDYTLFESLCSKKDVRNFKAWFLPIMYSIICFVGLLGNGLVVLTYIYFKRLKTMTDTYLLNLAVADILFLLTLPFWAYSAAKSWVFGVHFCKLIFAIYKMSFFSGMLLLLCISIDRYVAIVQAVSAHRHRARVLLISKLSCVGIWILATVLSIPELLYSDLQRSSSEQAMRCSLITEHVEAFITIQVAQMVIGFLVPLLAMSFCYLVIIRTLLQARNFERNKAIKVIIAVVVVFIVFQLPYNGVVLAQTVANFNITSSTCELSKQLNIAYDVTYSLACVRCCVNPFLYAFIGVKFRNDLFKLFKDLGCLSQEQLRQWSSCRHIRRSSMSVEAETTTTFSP
T14 sequence (Q92633 whole entry): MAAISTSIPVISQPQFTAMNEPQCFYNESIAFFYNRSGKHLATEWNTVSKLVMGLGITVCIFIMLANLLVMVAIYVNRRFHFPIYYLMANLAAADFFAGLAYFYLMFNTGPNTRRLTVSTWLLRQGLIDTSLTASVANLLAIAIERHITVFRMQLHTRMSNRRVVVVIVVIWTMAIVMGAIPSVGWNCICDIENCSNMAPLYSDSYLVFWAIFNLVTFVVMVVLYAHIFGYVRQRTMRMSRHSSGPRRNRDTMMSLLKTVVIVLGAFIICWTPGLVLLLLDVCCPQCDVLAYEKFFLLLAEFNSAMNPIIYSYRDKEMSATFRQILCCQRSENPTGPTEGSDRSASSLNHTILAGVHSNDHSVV
T29 sequence (Q8IZF4 22-528): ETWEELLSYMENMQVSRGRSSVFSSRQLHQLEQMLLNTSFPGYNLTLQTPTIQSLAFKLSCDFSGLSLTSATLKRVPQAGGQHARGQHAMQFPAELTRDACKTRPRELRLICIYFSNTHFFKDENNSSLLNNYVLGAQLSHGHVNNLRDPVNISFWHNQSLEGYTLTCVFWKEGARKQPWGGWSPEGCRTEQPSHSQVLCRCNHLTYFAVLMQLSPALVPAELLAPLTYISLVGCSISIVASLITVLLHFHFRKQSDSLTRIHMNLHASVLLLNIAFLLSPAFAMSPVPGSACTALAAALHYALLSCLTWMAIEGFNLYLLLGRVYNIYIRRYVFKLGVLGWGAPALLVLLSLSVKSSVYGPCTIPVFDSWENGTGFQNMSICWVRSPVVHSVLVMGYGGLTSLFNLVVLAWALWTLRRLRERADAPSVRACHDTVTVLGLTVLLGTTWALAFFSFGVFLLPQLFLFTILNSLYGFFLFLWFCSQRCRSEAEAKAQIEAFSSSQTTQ
T34 sequence (Q8TDS4 whole entry): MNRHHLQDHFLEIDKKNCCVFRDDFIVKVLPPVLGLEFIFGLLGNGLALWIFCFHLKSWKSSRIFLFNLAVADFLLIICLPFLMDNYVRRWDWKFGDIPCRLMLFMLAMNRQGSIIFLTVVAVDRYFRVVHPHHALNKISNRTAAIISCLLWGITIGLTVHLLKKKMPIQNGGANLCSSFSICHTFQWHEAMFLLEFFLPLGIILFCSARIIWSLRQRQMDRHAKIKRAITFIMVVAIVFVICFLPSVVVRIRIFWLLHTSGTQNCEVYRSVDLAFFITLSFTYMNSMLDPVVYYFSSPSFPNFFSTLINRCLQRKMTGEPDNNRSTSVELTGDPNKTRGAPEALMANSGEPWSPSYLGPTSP
T3 sequence (Q8WXD0 whole entry): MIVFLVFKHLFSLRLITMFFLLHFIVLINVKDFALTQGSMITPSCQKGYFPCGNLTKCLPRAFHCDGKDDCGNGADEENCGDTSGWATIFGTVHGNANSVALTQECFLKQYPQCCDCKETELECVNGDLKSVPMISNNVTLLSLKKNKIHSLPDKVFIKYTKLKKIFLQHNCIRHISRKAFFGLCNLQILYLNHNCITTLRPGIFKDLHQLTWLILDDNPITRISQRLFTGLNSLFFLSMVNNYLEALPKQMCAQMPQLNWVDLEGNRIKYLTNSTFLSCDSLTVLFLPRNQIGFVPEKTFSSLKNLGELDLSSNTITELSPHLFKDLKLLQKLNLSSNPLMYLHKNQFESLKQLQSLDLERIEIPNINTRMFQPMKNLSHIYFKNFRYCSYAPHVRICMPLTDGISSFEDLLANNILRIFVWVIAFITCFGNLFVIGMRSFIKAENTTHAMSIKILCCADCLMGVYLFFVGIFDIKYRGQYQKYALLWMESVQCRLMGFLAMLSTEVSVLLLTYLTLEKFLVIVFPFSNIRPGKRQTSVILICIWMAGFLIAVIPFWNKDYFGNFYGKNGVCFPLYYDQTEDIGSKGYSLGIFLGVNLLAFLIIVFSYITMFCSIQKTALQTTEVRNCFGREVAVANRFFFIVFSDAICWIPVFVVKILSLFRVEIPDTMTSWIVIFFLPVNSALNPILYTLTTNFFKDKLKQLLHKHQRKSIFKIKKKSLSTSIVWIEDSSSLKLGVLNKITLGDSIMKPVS

| SMILES | GPCR activation (heatmap value) [1] | GPCR activation (heatmap value) [2] | GPCR activation (heatmap value) [3] | GPCR activation (heatmap value) [4] | GPCR activation (heatmap value) [5] | GPCR activation (heatmap value) [6] | GPCR activation (heatmap value) [7] | GPCR activation (heatmap value) [8] | GPCR activation (heatmap value) [9] | GPCR activation (heatmap value) [10] | GPCR activation (heatmap value) [11] | GPCR activation (heatmap value) [12] | GPCR activation (heatmap value) [13] | GPCR activation (heatmap value) [14] | GPCR activation (heatmap value) [15] | GPCR activation (heatmap value) [16] | GPCR activation (heatmap value) [17] | GPCR activation (heatmap value) [18] | GPCR activation (heatmap value) [19] | GPCR activation (heatmap value) [20] | also measured |
| --- | --- | --- | --- | --- | --- | --- | --- | --- | --- | --- | --- | --- | --- | --- | --- | --- | --- | --- | --- | --- | --- |
| CC(C)Cc1ncc(CCCCNC(=N)N)[nH]c1=O [3-Homo] | 0.1551 | -0.1319 | 0.2908 | -0.09813 | -0.2637 | -0.2489 | 0.06446 | -0.5119 | 0.407 | -1.632 | 0.1789 | -0.4102 | 0.4562 | -0.9265 | -0.1574 | -0.002642 | -0.3796 | -1.204 | 0.07279 | -0.8234 | GPCR activation (heatmap value) [21]: 0.09565; GPCR activation (heatmap value) [22]: -0.09391; GPCR activation (heatmap value) [23]: 0.6163; GPCR activation (heatmap value) [24]: -1.001; GPCR activation (heatmap value) [25]: 0.04182; GPCR activation (heatmap value) [26]: -0.02426; GPCR activation (heatmap value) [27]: 0.04883; GPCR activation (heatmap value) [28]: 0.638; GPCR activation (heatmap value) [29]: 0.07141; GPCR activation (heatmap value) [30]: -0.2556; GPCR activation (heatmap value) [31]: 0.05882; GPCR activation (heatmap value) [32]: -0.1727; GPCR activation (heatmap value) [33]: -0.07136; GPCR activation (heatmap value) [34]: 0.4377; GPCR activation (heatmap value) [35]: 0.0787 |
| CC(C)Cc1ncc(CCCNC(=N)N)[nH]c1=O [compound 3] | 0.6105 | -0.4576 | -0.001018 | 0.5246 | 0.4657 | -0.03075 | 0.762 | 0.1426 | 0.5017 | 0.06134 | 0.3036 | -0.2783 | 0.07015 | -0.4869 | -0.2331 | 0.07678 | -0.2074 | 0.03461 | 0.188 | -0.2269 | GPCR activation (heatmap value) [21]: 0.5532; GPCR activation (heatmap value) [22]: -0.1686; GPCR activation (heatmap value) [23]: 0.4729; GPCR activation (heatmap value) [24]: -2.336; GPCR activation (heatmap value) [25]: 0.613; GPCR activation (heatmap value) [26]: 0.5899; GPCR activation (heatmap value) [27]: -0.3148; GPCR activation (heatmap value) [28]: 1.634; GPCR activation (heatmap value) [29]: 0.003235; GPCR activation (heatmap value) [30]: 0.3176; GPCR activation (heatmap value) [31]: 0.522; GPCR activation (heatmap value) [32]: 0.1369; GPCR activation (heatmap value) [33]: 0.5685; GPCR activation (heatmap value) [34]: 0.2197; GPCR activation (heatmap value) [35]: -0.3797 |

From article PMC11480411, “Mucosal sugars delineate pyrazine vs pyrazinone autoinducer signaling in Klebsiella oxytoca” (Nature Communications, 2024)
